Laboratory results published in ChEMBL document CHEMBL1131057, “Peptidomimetic growth hormone secretagogues. Design considerations and therapeutic potential” (J Med Chem, 1998).
Values belong to the compound of their own block, whether it stands above or below them. Where a SMILES comes first, the peptide text is derived from it. [ ]: non-standard residue; d: D form. dTrp(2-Me) = Cc1[nH]c2ccccc2c1C[C@@H](N)C(=O)O; Trp(2-Me) = Cc1[nH]c2ccccc2c1C[C@H](N)C(=O)O; d2Nal = N[C@H](Cc1ccc2ccccc2c1)C(=O)O; GABA = NCCCC(=O)O

What was measured:
Rattus norvegicus [1] = species on record: Rattus norvegicus; assay: compound was evaluated for GH release in rat; assay type: functional
Rattus norvegicus [2] = species on record: Rattus norvegicus; assay: compound was evaluated for GH release in the rat pituitary cell culture assay; assay type: functional; conditions: Pituitary gland cell
Sus scrofa [3] = species on record: Sus scrofa; assay: Compound was measured for IGF-1 increases in swine on days 4, 7, 10, and 14 approximately; assay type: functional
Sus scrofa [4] = species on record: Sus scrofa; assay: Compound was measured for elevated mean plasma IGF-1 (insulin like growth factor) concentrations in Swine; assay type: functional, organism-based
[5] = The intrinsic potency studied extensively in animals; assay type: functional
Canis familiaris [6] = assay: Loss of body weight in dog is evaluated after compound was administered perorally to dog at a dose 5 mg/kg, once daily (control (wt) = 1.13+/-0.19); assay type: functional, Canis lupus familiaris; conditions: route oral
[7] = Clearance rate was evaluated in rats; assay type: ADME, organism-based; conditions: rat, in vivo; read-out: Clearance rate
[8] = Half-life was evaluated in rats; assay type: ADME, organism-based; conditions: rat, in vivo
Rattus norvegicus [9] = assay: Compound was measured as maximal GH release which showed iv potency and efficacy; assay type: functional, organism-based
Rattus norvegicus [10] = assay: Potency measured in an anesthetized rat model; assay type: functional, organism-based
[11] = Clearance rate is evaluated rats; assay type: ADME, organism-based; conditions: rat, in vivo; read-out: Clearance rate
[12] = Compound was evaluated for oral bioavailability in human; assay type: ADME, organism-based; conditions: in vivo
Canis familiaris [13] = assay: Compound was tested for minimum effective dose in dogs through iv dose; assay type: functional; conditions: Canis lupus familiaris
[14] = Compound was evaluated for half-life in humans; assay type: ADME, organism-based; conditions: human, in vivo
Rattus norvegicus [15] = assay: Compound was tested for effective dose rquired for GH release following iv administration to 4-week old anesthetized Sprague-Dawley rats; assay type: functional
Rattus norvegicus [16] = species on record: Rattus norvegicus; assay: In vitro efficacy was evaluated for growth hormone release
Rattus norvegicus [17] = assay: Compound was evaluated for GH releasing properties after iv administration to infant rats; assay type: functional, organism-based
Rattus norvegicus [18] = assay: In Vivo efficacy was evaluated for growth hormone release; assay type: functional, organism-based
[19] = target: Growth hormone secretagogue receptor type 1 (Homo sapiens, UniProt Q92847); assay: Compound was evaluated for GH release for effect on human GH secretagogue receptor; assay type: functional
[20] = Compound was evaluated for percentage of Oral bioavailability in rats; assay type: ADME, organism-based; conditions: rat, in vivo, read-out: Bioavailabiility
Rattus norvegicus [21] = assay: Compound was measured for elevated levels of GH release in infant rats after administration subcutaneously at 300 ug/kg; assay type: functional, organism-based
Rattus norvegicus [22] = species on record: Rattus norvegicus; assay: In Vitro evaluation for growth hormone release from the pituitary incubates; assay type: functional

Sequence of Growth hormone secretagogue receptor type 1 (Q92847 whole entry): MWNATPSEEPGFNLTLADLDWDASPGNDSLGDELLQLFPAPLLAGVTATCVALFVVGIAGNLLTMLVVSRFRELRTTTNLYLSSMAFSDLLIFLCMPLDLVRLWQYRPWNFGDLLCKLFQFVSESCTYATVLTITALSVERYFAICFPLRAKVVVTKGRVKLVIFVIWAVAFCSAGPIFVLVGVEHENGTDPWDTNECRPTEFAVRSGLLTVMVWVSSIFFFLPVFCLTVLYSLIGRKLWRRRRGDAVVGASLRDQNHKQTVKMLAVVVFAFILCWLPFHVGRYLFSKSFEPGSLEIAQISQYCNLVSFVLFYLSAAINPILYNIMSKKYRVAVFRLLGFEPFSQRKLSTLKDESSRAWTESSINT

SMILES: Cc1[nH]c2ccccc2c1C[C@@H](NC(=O)[C@@H](N)Cc1c[nH]cn1)C(=O)N[C@@H](C)C(=O)N[C@@H](Cc1c[nH]c2ccccc12)C(=O)N[C@H](Cc1ccccc1)C(=O)N[C@@H](CCCCN)C(N)=O [EXAMORELIN] (H-H[dTrp(2-Me)]AW[dF]K-NH2)
Activity (Rattus norvegicus [1]): 104 ng/mL

EC50 (Rattus norvegicus [2]): 3 nM
SMILES: CC(C)(N)C(=O)N[C@H](Cc1c[nH]c2ccccc12)C(=O)N1CCc2ccc(S(N)(=O)=O)cc2C1

EC50 [5]: 1.5 nM
SMILES: CC(C)(N)C(=O)N[C@H](CCCc1ccccc1)C(=O)N1CCC2(CC1)CN(S(C)(=O)=O)c1ccccc12
Increase (Sus scrofa [3]): 60%
Plasma concentration (Sus scrofa [4]): 62%
Body weight (Canis familiaris [6]): 0.21 kg

clearance [7]: 39 mL/min/kg
half-life [8]: 11 min
EC50 (Rattus norvegicus [9]): 5 nM
SMILES: C[C@H](NC(=O)[C@@H](Cc1c[nH]c2ccccc12)NC(=O)CCc1c[nH]cn1)C(=O)N[C@@H](Cc1c[nH]c2ccccc12)C(=O)N[C@H](Cc1ccccc1)C(=O)N[C@H](CO)CCCCN

EC50 (Rattus norvegicus [2]): 1.8 nM
SMILES: CC(C)(N)C(=O)N[C@H](Cc1c[nH]c2ccccc12)C(=O)N1CCC[C@]2(CC(=O)c3ccccc3O2)C1

EC50 (Rattus norvegicus [2]): 10.6 nM
SMILES: O=C(N[C@H](Cc1ccc2ccccc2c1)C(=O)N[C@@H](CO)Cc1c[nH]c2ccccc12)C1CCNCC1

EC50 (Rattus norvegicus [10]): 0.5 nM
SMILES: C[C@H](NC(=O)[C@@H](Cc1c[nH]c2ccccc12)NC(=O)[C@@H](N)Cc1c[nH]cn1)C(=O)N[C@@H](Cc1c[nH]c2ccccc12)C(=O)N[C@@H](CN[C@H](CO)CCCCN)Cc1ccccc1

clearance [11]: 25 mL/min/kg
bioavailability [12]: 0.3%
half-life [8]: 22 min
half-life [14]: 20 min
SMILES: C[C@H](NC(=O)[C@@H](Cc1c[nH]c2ccccc12)NC(=O)[C@@H](N)Cc1c[nH]cn1)C(=O)N[C@@H](Cc1c[nH]c2ccccc12)C(=O)N[C@H](Cc1ccccc1)C(=O)N[C@@H](CCCCN)C(N)=O (H-H[dW]AW[dF]K-NH2)
MED (Canis familiaris [13]): 0.01 mg/kg

EC50 (Rattus norvegicus [2]): 3 nM
SMILES: Cc1ccc(S(=O)(=O)Nc2ccc3c(c2)CCN(C(=O)[C@@H](Cc2c[nH]c4ccccc24)NC(=O)C(C)(C)N)C3)cc1
ED50 (Rattus norvegicus [15]): > 10 mg/kg

SMILES: CC(C)(CC(=O)N[C@@H]1CCc2ccccc2N(Cc2ccc(-c3ccccc3C(N)=O)cc2)C1=O)NC[C@H](O)CO
EC50 (Rattus norvegicus [16]): 3 nM

SMILES: Cc1[nH]c2ccccc2c1C[C@@H](NC(=O)CCCN)C(=O)N[C@H](Cc1ccc2ccccc2c1)C(=O)N[C@@H](Cc1ccccc1)C(=O)N[C@@H](CCCCN)C(N)=O (H-[GABA][dTrp(2-Me)][d2Nal]FK-NH2)
Concentration (Rattus norvegicus [17]): 198 ng/mL

SMILES: O=C(NC(Cc1c[nH]c2ccccc12)C(=O)N1CCC2(CCc3ccccc32)CC1)NC1CN2CCC1CC2 (centres undefined) [SPIROPIPERIDINE]
IC50 (Rattus norvegicus [2]): 50 nM

EC50 (Rattus norvegicus [2]): 100 nM
SMILES: CNC(=O)Nc1ccccc1-c1ccc2c(c1)CCN(C(=O)[C@@H](Cc1c[nH]c3ccccc13)NC(=O)C(C)(C)N)C2

SMILES: CC(C)(N)CC(=O)NC1CCc2ccccc2N(Cc2ccc(-c3ccccc3C(=O)O)cc2)C1=O (centres undefined)
EC50 (Rattus norvegicus [18]): 3000 nM

EC50 [19]: 0.34 nM
SMILES: NC(=O)CN(CCc1ccccc1)C(=O)[C@@H](Cc1ccc2ccccc2c1)NC(=O)[C@@H](Cc1ccc2ccccc2c1)NC(=O)C1CCNCC1

bioavailability [20]: < 5%
SMILES: CC(C)(N)CC(=O)N[C@@H]1CCc2c(ccc3ccccc23)N(Cc2ccc(-c3ccccc3-c3nn[nH]n3)cc2)C1=O
EC50 (Rattus norvegicus [16]): 4 nM

SMILES: Cc1[nH]c2ccccc2c1C[C@H](NC(=O)[C@@H](Cc1c(C)[nH]c2ccccc12)NC(=O)[C@@H](Cc1c(C)[nH]c2ccccc12)NC(=O)CCCN)C(=O)N[C@@H](CCCCN)C(N)=O (H-[GABA][dTrp(2-Me)][dTrp(2-Me)][Trp(2-Me)]K-NH2)
Concentration (Rattus norvegicus [21]): 200 ng/mL

SMILES: CSCC[C@@H](NC(=O)[C@H](Cc1ccccc1)NC(=O)CNC(=O)[C@H](Cc1ccccc1)NC(=O)[C@@H](N)Cc1ccc(O)cc1)C(N)=O
Concentration (Rattus norvegicus [22]): 10 µg/mL
